Reference: patent US8299089B2, “Multi-arm polymeric conjugates of 7-ethyl-10-hydroxycamptothecin for treatment of breast, colorectal, pancreatic, ovarian and lung cancers” (priority 2006, dated 2012)

What was measured:
MIA PaCa-2 = experiment: In vitro cytotoxicity, MTS assay, MIA PaCa-2; assay type: cell-based; conditions: Table 2; MIA PaCa-2, 72 hours; Compound 9 in 7-ethyl-10-hydroxycamptothecin equivalents; no SD = average of two replicates
Procedure: (§1) In Table 2, the cytotoxicity (μM of each compound that results in an IC50) provides an indication of the in vitro anti-tumor potency of each compound. This study was used to determine the effect of PEGylation of four-arm PEGylated 7-ethyl-10-hydroxycamptothecin conjugates. […] Cells were incubated with drugs for 72 hours at 37° C. Following incubation, MTS dye was added and formation of a colored product (formazan) was measured at 490 nm.

[1] = Stability in saline, aqueous medium and buffer; assay type: physicochemical; conditions: effect of pH, FIG. 13
Procedure: PEG-7-ethyl-10-hydroxycamptothecin conjugates show good stability in saline and other aqueous medium for up to 24 hours at room temperature.

[2] = test system: human mammary, MX-1 tumors; experiment: Efficacy in small and large MX-1 breast tumor xenografted mice; assay type: in vivo, nude mice
Procedure: The antitumor efficacy of 4armPEG-Gly-(7-ethyl-10-hydroxycamptothecin) was evaluated in nude mice bearing small (about 100 mm^3) or large (about 450 mm^3) established human mammary, MX-1 tumors. The antitumor therapeutic activities were determined in mice both with a single dose or multiple dose regimens.
Four of six mice were cured as of day 54. […] All animals were sacrificed by day 20 due to excessive tumor burden.

[3] = test system: HT-29 colorectal tumor cells; experiment: Efficacy in HT-29 colorectal tumor xenograft mice
BxPC-3 = experiment: In vitro cytotoxicity, MTS assay, BxPC-3; assay type: cell-based; conditions: Table 2; BxPC-3, 72 hours; Compound 9 in 7-ethyl-10-hydroxycamptothecin equivalents; average ± SD (n = 3)
Procedure: as §1

PANC-1 = experiment: In vitro cytotoxicity, MTS assay, PANC-1; assay type: cell-based; conditions: Table 2; PANC-1, 72 hours; Compound 9 in 7-ethyl-10-hydroxycamptothecin equivalents; average ± SD (n = 3)
Procedure: as §1

OVCAR-3 = experiment: In vitro cytotoxicity, MTS assay, OVCAR-3; assay type: cell-based; conditions: Table 2; OVCAR-3, 72 hours; Compound 9 in 7-ethyl-10-hydroxycamptothecin equivalents; average ± SD (n = 3)
Procedure: as §1

[4] = Pharmacokinetics in tumor free Balb/C mice; assay type: in vivo
Excerpt: Pharmacokinetic analysis was done using non-compartmental analysis (WinNonlin).

A2780 = experiment: In vitro cytotoxicity, MTS assay, A2780; assay type: cell-based; conditions: Table 2; A2780, 72 hours; Compound 9 in 7-ethyl-10-hydroxycamptothecin equivalents; average ± SD (n = 3)
Procedure: as §1

SK-0V-3 = experiment: In vitro cytotoxicity, MTS assay, SK-0V-3; assay type: cell-based; conditions: Table 2; SK-0V-3, 72 hours; Compound 9 in 7-ethyl-10-hydroxycamptothecin equivalents; average ± SD (n = 3)
Procedure: as §1

HT29 = experiment: In vitro cytotoxicity, MTS assay, HT29; assay type: cell-based; conditions: Table 2; HT29, 72 hours; Compound 9 in 7-ethyl-10-hydroxycamptothecin equivalents; average ± SD (n = 3)
Procedure: as §1

[5] = test system: MiaPaCa-2 pancreatic tumor cells; experiment: Efficacy in MiaPaCa-2 pancreatic tumor xenograft mice; assay type: in vivo
A549 = experiment: In vitro cytotoxicity, MTS assay, A549; assay type: cell-based; conditions: Table 2; A549, 72 hours; Compound 9 in 7-ethyl-10-hydroxycamptothecin equivalents; average ± SD (n = 3)
Procedure: as §1

OV90 = experiment: In vitro cytotoxicity, MTS assay, OV90; assay type: cell-based; conditions: Table 2; OV90, 72 hours; Compound 9 in 7-ethyl-10-hydroxycamptothecin equivalents; average ± SD (n = 3)
Procedure: as §1

[6] = test system: human mammary carcinoma (MX-1); experiment: Multiple dose efficacy in MX-1 breast tumor xenograft mouse model; assay type: in vivo, nude mice; conditions: i.v. 5 mg/kg/dose (q2d×6), day 31
Procedure: The mice were dosed 5 mg/kg/day […] (every 2 days [q×2d]×6). Mouse weight and tumor sizes were monitored up to the 31st day after the first dose administration and subsequent administrations.

[7] = test system: panel of cancer cell lines; experiment: In vitro cytotoxicity, panel of cancer cell lines (comparisons); assay type: cell-based
Procedure: as §1
PEG-(7-ethyl-10-hydroxycamptothecin) conjugates containing various amino acids are potent in vitro cytotoxicity against a panel of cancer cell lines as summarized in TABLE 3.

OVCAR-8 = experiment: In vitro cytotoxicity, MTS assay, OVCAR-8; assay type: cell-based; conditions: Table 2; OVCAR-8, 72 hours; Compound 9 in 7-ethyl-10-hydroxycamptothecin equivalents; average ± SD (n = 3)
Procedure: as §1

Pharmacokinetics in rats = assay type: in vivo; conditions: rats, 3, 10 and 30 mg/kg; conjugate
Colo 205 = experiment: In vitro cytotoxicity, MTS assay, Colo 205; assay type: cell-based; conditions: Table 2; Colo 205, 72 hours; Compound 9 in 7-ethyl-10-hydroxycamptothecin equivalents; average ± SD (n = 3)
Procedure: as §1

[8] = test system: human mammary carcinoma (MX-1); experiment: Single dose efficacy in MX-1 breast tumor xenograft mouse model; assay type: in vivo, nude mice; conditions: day 31; for TGI: 20 mg/kg
Procedure: Following at least one week of acclimation, tumors were established by implanting small tumor fragments from donor mice into a single subcutaneous site, on the left auxiliary flank region of nude mice. The tumor implantation site was observed twice weekly and measured once palpable. The tumor volume for each mouse was determined by measuring two dimensions with calipers and calculated using the formula: tumor volume=(length×width^2). […] Drugs were administered intravenously via the tail vein as a single dose of 20 mg/kg body weight of a mouse. […] Mouse weight and tumor sizes were measured at the beginning of study and on the 31st day after the single dose administration.
The overall growth of tumors was calculated as the mean tumor volume (TV). A percent treatment over control (T/C) was also calculated. The percentage of tumor regression indicates the in vivo activity of each compound.

ASPC-1 = experiment: In vitro cytotoxicity, MTS assay, ASPC-1; assay type: cell-based; conditions: Table 2; ASPC-1, 72 hours; Compound 9 in 7-ethyl-10-hydroxycamptothecin equivalents; average ± SD (n = 3)
Procedure: as §1

With “^40k4arm-PEG-Gly(20)-(7-ethyl-10-hydroxycamptothecin) [Compound 9]” the IC50 (MIA PaCa-2) was 90 nM, the “rate of 7-ethyl-10-hydroxycamptothecin release” value [1] was “increases with increased pH” and the “effect on body weight” value ([2]; given at the MTD, for the duration of the treatment) was “did not significantly decrease the body weight”. For the same substance, the TGI ([2]; large tumors (about 450 mm^3), single MTD 30 mg/kg) was 96%, the mice cured ([2]; large tumors, multiple doses 10 mg/kg q2d×5, as of day 54) was “five of six” and the TGI ([2]; large tumors, multiple doses at MTD 10 mg/kg q2d×5) was 96%. For the same substance, the mice cured ([2]; large tumors, single MTD 30 mg/kg, as of day 54) was “Four of six”, the TGI ([2]; small tumors (about 100 mm^3), multiple doses 20 mg/kg q2d×5, as of day 31) was 96% and the TGI ([2]; small tumors (about 100 mm^3), single dose 20 mg/kg) was 100%. For the same substance, the “effect on body weight” value ([3]; during the treatment) was “did not significantly decrease the body of weight”, the “therapeutic efficacy” value ([3]; i.v. 10 mg/kg/dose for five days, days 4-22) was “significant therapeutic efficacy compared to that of CPT-11” and the “anti-tumor activity” value ([3]; single dose i.v. 30 mg/kg, days 4-22) was “significant anti-tumor activity”. The IC50 (BxPC-3) was 240 ± 40 nM, the IC50 (PANC-1) was 670 ± 140 nM and the IC50 (OVCAR-3) was 300 ± 200 nM. The terminal elimination half-life ([4]; for 7-ethyl-10-hydroxycamptothecin) was 18 to 26 h, the terminal elimination half-life ([4]; for the conjugate) was 18 to 22 h and the IC50 (A2780) was 200 ± 200 nM. The IC50 (SK-0V-3) was 900 ± 10 nM, the IC50 (HT29) was 500 ± 300 nM and the TGI ([5]; multiple doses i.v. (10 mg/kg/dose for five days; CPT-11 also 40 mg/kg/dose)) was 95%. For the same substance, the TGI ([5]; single dose i.v. (30 mg/kg; CPT-11 also 80 mg/kg)) was 71%, the IC50 (A549) was 2700 ± 400 nM and the IC50 (OV90) was 600 ± 700 nM. For the same substance, the “Chg in TV ± SD” value [6] was −91 ± 10%, the Cures [6] was 100% and the F/I [6] was 14%. For the same substance, the “Mean TV ± SD” value [6] was 12 ± 18 mm^3, the “Median TV” value [6] was 6.6 mm^3 and the Regressions [6] was 100%. The Survival [6] was 100%, the T/C [6] was 0.8% and the TGI [6] was 99%. For the same substance, the “in vitro inhibition compared with CPT-11” value ([7]; all tested tumor cells) was “much higher in vitro inhibition”, the “in vitro inhibition compared with native 7-ethyl-10-hydroxycamptothecin” value ([7]; tested tumor cells except for HT29) was “significantly higher in vitro inhibition” and the IC50 (OVCAR-8) was 500 ± 100 nM. The elimination half life (Pharmacokinetics in rats) was 12 to 18 h, the IC50 (Colo 205) was 1000 ± 600 nM and the “Mean TV ± SD” value ([8]; single dose i.v. 20 mg/kg (conjugate as 7-ethyl-10-hydroxycamptothecin equivalent)) was 7 ± 9 mm^3. The “Chg in TV ± SD” value ([8]; single dose i.v. 20 mg/kg) was −94 ± 10%, the Cures ([8]; single dose i.v. 20 mg/kg) was 100% and the F/I ([8]; single dose i.v. 20 mg/kg) was 7%. For the same substance, the “Median TV” value ([8]; single dose i.v. 20 mg/kg) was 3 mm^3, the Regressions ([8]; single dose i.v. 20 mg/kg) was 100% and the Survival ([8]; single dose i.v. 20 mg/kg) was 100%. For the same substance, the T/C ([8]; single dose i.v. 20 mg/kg) was 0.3%, the TGI ([8]; single dose i.v. 20 mg/kg) was 99% and the TGI ([8]; single dose i.v. 20 mg/kg, listed as 4armPEG-Gly-(7-ethyl-10-hydroxycamptothecin)) was ~100%. It also gave an IC50 (ASPC-1) of 1600 ± 1100 nM.
